This note sets out measurements from patent US9968565B2, “Method for protection and improvement of liver health with meso-zeaxanthin compositions” (OMNIACTIVE HEALTH TECHNOLOGIES LIMITED, priority 2015, dated 2018).

This experiment concerns HepG2 cells. Kind of experiment: In vitro fatty liver model, lipid content in oleic acid-treated HepG2 hepatocytes (Adipored staining). It is filed as cell-based. Conditions: HepG2, 1.5 mM Oleic Acid + 100 uM. As to the method:
HepG2 cells were seeded at a density of 5×10^4 cells/mL in 24 well plates and cultured to 100% confluency. Once 100% confluent, HepG2 Growth Media (ATCC-formulated Eagle's Minimum Essential Media (EMEM) 500 mL+10% FBS-50 mL+1% pen/strep antibiotic-5 mL) was […] fetal bovine serum (FBS) Free Growth Media (1 mL per well) for 24 hours. Following 24 hour FBS-free conditions, cells were treated with differing concentrations of Oleic Acid (0.5, 1.0, 1.5, 2.0 mM; Sigma O3008) to induce fatty liver conditions. From preliminary Adipored Staining data, 1.5 mM Oleic Acid (OA) was deemed the most appropriate concentration of OA to induce maximum steatosis (accumulation of large vacuoles of triglyceride fat in liver cells—thus it is abnormal retention of lipids within a cell) while remaining non-cytotoxic.

For the molecule `C[C@@H]1O[C@@H](OC[C@H]2O[C@@H](Oc3c(-c4ccc(O)c(O)c4)oc4cc(O)cc(O)c4c3=O)[C@H](O)[C@@H](O)[C@@H]2O)[C@H](O)[C@H](O)[C@H]1O` [Rutin], the “% Decrease in Lipid Content” value came out at 22% and the “Lipid Content” value is given as 23088.67.
